Read-outs that look alike come from different tables or passages of the source.
How the values were obtained:
Assay type in all cases: binding
[1] = molecular target: T1, HeLa cell extract proteins (Homo sapiens, UniProt Q3ZCQ8)
T1 construct: endogenous in cells; host or cells: HeLa cell extract

[2] = molecular target: T2, HeLa cell extract proteins (Homo sapiens, UniProt O60664)
T2 construct: endogenous in cells; host or cells: HeLa cell extract
T2 sequence (O60664 1-434): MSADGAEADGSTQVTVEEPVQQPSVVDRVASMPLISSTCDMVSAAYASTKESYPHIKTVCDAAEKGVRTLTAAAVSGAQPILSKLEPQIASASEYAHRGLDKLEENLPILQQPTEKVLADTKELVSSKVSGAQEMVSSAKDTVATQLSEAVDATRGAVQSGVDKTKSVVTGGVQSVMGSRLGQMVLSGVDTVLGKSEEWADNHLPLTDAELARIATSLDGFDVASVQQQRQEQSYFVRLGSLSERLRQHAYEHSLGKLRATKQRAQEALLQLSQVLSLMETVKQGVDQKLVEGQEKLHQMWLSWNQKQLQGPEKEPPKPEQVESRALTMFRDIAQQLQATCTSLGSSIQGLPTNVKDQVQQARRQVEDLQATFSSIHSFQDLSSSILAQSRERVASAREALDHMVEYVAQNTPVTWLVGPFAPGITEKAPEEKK

[3] = molecular target: T3, HeLa cell extract proteins (Homo sapiens, UniProt O00743)
T3 construct: endogenous in cells; host or cells: HeLa cell extract
T3 sequence (O00743 1-305): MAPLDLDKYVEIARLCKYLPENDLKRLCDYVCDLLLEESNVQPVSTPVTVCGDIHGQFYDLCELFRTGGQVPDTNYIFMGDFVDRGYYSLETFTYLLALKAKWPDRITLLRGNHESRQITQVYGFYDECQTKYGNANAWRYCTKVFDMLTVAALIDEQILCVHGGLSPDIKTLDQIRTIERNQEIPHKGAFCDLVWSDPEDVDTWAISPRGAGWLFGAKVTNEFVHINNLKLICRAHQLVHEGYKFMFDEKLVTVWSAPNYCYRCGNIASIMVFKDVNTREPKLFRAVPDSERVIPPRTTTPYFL

[4] = molecular target: T4, HeLa cell extract proteins (Homo sapiens, UniProt O43747)
T4 construct: endogenous in cells; host or cells: HeLa cell extract
T4 sequence (O43747 1-822): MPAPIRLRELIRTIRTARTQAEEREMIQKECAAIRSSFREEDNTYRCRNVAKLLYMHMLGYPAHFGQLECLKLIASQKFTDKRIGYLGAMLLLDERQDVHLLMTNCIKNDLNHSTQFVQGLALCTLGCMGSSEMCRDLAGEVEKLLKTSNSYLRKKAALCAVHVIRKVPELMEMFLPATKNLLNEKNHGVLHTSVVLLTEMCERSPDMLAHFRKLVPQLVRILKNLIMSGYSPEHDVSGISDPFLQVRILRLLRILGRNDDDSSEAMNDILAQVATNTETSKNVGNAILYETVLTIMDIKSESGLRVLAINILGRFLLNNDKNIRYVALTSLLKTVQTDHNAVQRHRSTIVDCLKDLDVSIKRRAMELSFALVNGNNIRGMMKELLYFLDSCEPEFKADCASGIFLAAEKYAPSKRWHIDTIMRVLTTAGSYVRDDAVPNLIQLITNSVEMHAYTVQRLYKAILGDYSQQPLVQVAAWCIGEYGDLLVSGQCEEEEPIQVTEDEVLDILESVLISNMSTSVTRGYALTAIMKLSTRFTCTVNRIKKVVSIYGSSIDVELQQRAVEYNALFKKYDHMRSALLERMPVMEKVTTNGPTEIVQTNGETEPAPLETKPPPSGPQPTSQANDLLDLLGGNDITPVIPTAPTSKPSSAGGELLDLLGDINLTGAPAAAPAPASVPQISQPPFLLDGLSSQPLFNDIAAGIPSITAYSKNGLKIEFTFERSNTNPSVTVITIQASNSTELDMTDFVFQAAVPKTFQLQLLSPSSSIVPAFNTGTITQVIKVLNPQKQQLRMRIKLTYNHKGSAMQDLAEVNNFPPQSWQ

[5] = molecular target: T5, HeLa cell extract proteins (Homo sapiens, UniProt Q99873)
T5 construct: endogenous in cells; host or cells: HeLa cell extract

[6] = molecular target: T6, HeLa cell extract proteins (Homo sapiens, UniProt P07437)
T6 construct: endogenous in cells; host or cells: HeLa cell extract

[7] = molecular target: T7, HeLa cell extract proteins (Homo sapiens, UniProt P14868)
T7 construct: endogenous in cells; host or cells: HeLa cell extract
T7 sequence (P14868 1-501): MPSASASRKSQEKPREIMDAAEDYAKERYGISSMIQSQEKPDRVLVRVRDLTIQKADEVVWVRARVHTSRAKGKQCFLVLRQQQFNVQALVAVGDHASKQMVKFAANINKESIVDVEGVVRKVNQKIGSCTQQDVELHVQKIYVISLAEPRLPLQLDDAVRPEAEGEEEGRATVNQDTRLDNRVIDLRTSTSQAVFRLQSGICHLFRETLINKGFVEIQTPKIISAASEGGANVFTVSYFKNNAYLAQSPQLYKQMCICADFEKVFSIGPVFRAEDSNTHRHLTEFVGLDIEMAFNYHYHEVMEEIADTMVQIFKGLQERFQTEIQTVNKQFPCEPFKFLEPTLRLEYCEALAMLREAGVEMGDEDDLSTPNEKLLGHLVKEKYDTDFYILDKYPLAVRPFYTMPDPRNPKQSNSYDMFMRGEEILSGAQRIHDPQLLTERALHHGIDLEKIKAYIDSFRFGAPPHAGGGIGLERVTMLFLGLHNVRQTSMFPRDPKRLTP

[8] = molecular target: T8, HeLa cell extract proteins (Homo sapiens, UniProt P35637)
T8 construct: endogenous in cells; host or cells: HeLa cell extract
T8 sequence (P35637 1-526): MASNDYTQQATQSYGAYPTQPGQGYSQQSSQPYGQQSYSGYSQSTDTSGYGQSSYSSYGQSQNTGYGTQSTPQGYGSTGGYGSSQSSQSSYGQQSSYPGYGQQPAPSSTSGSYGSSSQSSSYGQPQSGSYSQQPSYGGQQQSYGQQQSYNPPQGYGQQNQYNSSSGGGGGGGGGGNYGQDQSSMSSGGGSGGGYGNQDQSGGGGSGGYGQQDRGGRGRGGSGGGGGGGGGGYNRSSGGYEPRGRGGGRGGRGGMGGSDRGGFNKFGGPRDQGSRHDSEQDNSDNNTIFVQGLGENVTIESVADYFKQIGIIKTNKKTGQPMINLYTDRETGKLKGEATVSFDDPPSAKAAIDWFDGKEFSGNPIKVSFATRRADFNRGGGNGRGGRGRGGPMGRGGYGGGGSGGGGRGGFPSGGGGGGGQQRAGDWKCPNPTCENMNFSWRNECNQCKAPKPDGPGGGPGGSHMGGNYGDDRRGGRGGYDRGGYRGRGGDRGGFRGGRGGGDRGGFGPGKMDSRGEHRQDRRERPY

[9] = HeLa, protein FUS (FUS-LIKE PROTEIN (FRAGMENT))

T5 sequence (Q99873 whole entry): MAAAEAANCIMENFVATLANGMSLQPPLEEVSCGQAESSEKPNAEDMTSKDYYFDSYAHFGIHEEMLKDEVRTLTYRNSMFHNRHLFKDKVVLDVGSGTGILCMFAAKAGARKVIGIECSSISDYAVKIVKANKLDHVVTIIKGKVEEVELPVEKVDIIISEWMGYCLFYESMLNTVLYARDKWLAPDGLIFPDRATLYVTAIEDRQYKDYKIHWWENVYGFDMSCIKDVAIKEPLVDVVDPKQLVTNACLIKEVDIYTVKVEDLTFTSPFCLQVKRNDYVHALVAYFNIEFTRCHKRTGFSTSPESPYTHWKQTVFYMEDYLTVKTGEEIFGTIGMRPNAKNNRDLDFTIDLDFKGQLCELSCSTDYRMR
T1 sequence (Q3ZCQ8 45-353): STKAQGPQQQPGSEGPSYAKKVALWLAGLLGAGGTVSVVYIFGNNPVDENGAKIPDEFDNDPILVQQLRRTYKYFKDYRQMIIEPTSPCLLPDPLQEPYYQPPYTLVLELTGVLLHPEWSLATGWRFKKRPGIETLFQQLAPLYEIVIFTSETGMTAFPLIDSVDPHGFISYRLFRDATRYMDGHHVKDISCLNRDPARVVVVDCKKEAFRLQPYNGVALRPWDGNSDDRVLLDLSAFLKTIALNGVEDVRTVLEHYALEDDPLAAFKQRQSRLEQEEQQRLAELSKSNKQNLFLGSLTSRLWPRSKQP
T6 sequence (P07437 whole entry): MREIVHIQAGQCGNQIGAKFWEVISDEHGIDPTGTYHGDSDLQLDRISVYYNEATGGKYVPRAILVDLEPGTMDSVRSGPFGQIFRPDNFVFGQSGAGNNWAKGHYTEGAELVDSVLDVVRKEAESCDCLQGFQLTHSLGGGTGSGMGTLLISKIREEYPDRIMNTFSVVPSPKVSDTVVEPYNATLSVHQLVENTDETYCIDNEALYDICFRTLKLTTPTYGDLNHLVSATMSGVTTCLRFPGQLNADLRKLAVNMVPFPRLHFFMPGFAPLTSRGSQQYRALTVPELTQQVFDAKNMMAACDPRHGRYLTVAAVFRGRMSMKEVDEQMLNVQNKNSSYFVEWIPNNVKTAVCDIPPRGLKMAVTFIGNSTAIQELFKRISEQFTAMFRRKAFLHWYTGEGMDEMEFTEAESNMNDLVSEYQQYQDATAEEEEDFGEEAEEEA

| SMILES | fold changes relative to vehicle control ([1]; captured protein TIMM50, HeLa) | fold changes relative to vehicle control ([2]; protein M6PRBP1, HeLa) | fold changes relative to vehicle control ([3]; HeLa, protein PPP6C) | fold changes relative to vehicle control ([4]; protein AP1G1, HeLa) | fold changes relative to vehicle control ([5]; protein PRMT1, HeLa) | fold changes relative to vehicle control ([6]; HeLa, protein TUBB) | fold changes relative to vehicle control ([7]; protein DARS, HeLa) | fold changes relative to vehicle control ([8]; protein FUS, HeLa) | fold changes relative to vehicle control ([1]; HeLa, protein TIMM50) | fold changes relative to vehicle control ([4]; HeLa, protein AP1G1) | fold changes relative to vehicle control ([5]; HeLa, protein PRMT1) | fold changes relative to vehicle control ([6]; protein TUBB, HeLa) | fold changes relative to vehicle control ([7]; HeLa, protein DARS) | fold changes relative to vehicle control [8, 9] | other results |
| --- | --- | --- | --- | --- | --- | --- | --- | --- | --- | --- | --- | --- | --- | --- | --- |
| CCCCCCOc1cccc(Cc2cnc(N)nc2N)c1 [compound 2] | 1.04 | 1.68 | 0.99 | 1.51 | 1.24 | 0.82 | 1.15 | 1.21 | – | – | – | – | – | – | – |
| NCCOCCOCC(=O)Nc1nc2ncc(CNc3ccc(C(=O)NC(CCC(=O)O)C(=O)O)cc3)nc2c(=O)[nH]1 (centres unmarked) [compound 6] | – | 1.27 | 1.05 | – | – | – | – | – | 0.96 | 1.17 | 0.95 | 0.95 | 0.99 | 1.09 | – |
| CCCCCCOc1ccc(Cc2cnc(N)nc2N)cc1 [compound 1] | 1 | 1.23 | 1.01 | 1.19 | 0.95 | 0.93 | 1.02 | 1.05 | – | – | – | – | – | – | – |
| Nc1nc2c(c(=O)[nH]1)N(C=O)C(CNc1ccc(C(=O)N[C@@H](CCC(=O)O)C(=O)O)cc1)CN2 (some centres unmarked) [LEU, leucovorin] | – | 1 | 0.99 | – | – | – | – | – | 0.9 | 1.1 | 0.94 | 0.91 | 0.94 | 1.06 | – |
| NCCCNc1ccc(C(=O)NC(CCC(=O)O)C(=O)O)cc1 (centres unmarked) [compound 7] | – | 0.93 | 1.04 | – | – | – | – | – | 0.97 | 1.17 | 0.91 | 0.98 | 1.06 | 1.25 | – |
| Nc1nc2[nH]cc(CCc3ccc(C(=O)N[C@@H](CCC(=O)O)C(=O)O)cc3)c2c(=O)[nH]1 [PTX, pemetrexed] | – | – | – | – | – | – | – | – | – | – | – | – | – | – | fold changes relative to vehicle control [1]: 0.87; fold changes relative to vehicle control [2]: 1.06; fold changes relative to vehicle control [3]: 0.94; fold changes relative to vehicle control [4]: 1.09; fold changes relative to vehicle control [5]: 0.93; fold changes relative to vehicle control [6]: 0.84; fold changes relative to vehicle control [7]: 0.98; fold changes relative to vehicle control [8]: 1.03 |
| Nc1nc2cccc(-c3ccccc3)c2n1Cc1ccc(Cl)c(Cl)c1 [compound 3] | 0.99 | 0.94 | 1.04 | 0.97 | 0.93 | 1.02 | 0.93 | 1.02 | – | – | – | – | – | – | – |

From paper PMC6199744, “Development of Chemical Proteomics for the Folateome and Analysis of the Kinetoplastid Folateome” (ACS Infectious Diseases, 2018)
